Tests used:
[1] = Solubility; assay type: physicochemical; settings: dans les solvants organiques
Text: Solubilité : Soluble dans l'eau à 1 %. Insoluble dans les solvants organiques.

[2] = Local tolerance on shaved flank; assay type: in vivo; settings: 5 cobayes albinos adultes; application three times a week for two weeks on shaved flank
Text: La tolérance a été recherchée sur 5 cobayes albinos adultes.

[3] = test system: lipase; test: Antilipase power: inhibition of hydrolysis of glycerol tributyrate by lipase; assay type: biochemical; settings: substrate tributyrate de glycérol
Method: Le milieu d'incubation témoin ne contient que des acides gras estérifiés (tributyrate de glycérol).
L'ajout de lipase dans le milieu entraîne l'hydrolyse du tributyrate de glycérol.
L'incorporation de L-thiazolidine-4 carboxylate de zinc avant l'adjonction de lipase empêche la libération d'acide butyrique. Les résultats obtenus sont regroupés dans le tableau suivant : […]

[4] = Antioxidant power: peroxide index during oxidation of linoleic acid (method of CARNAT and POURRAT, linoleic acid instead of linseed oil)
Method: La mesure du pouvoir antioxydant est effectuée selon la méthode décrite par CARNAT et POURRAT (Ann. Pharm. Fr. 1979, 37, n° 3-4, p. 119-124) en remplaçant l'huile de lin par de l'acide linoléique. L'oxydation de l'acide linoléique est suivie chaque jour par une mesure de l'indice de péroxyde Ip.
Dans un flacon contenant l'acide linoléique, on ajoute 15 ml de CHCl3, 20 ml d'acide acétique RP puis 1 ml de solution aqueuse saturée de IK. On agite une minute et on laisse reposer le flacon 5 minutes à l'obscurité.
A près voir ajouté 100 ml d'eau, on dose l'iode libéré par du thiosulfate de sodium 0,01 N.

Substance: L-thiazolidine-4 carboxylate de zinc
- Solubilité [1]: Insoluble
- Tolérance locale [2]: aucune réaction
- % d'inhibition mesuré ([3]; 5 mg): 52%
- % d'inhibition mesuré ([3]; 10 mg): 71,5%
- Indice de péroxydes ([4]; Temps 0 h): 0,91
- Indice de péroxydes ([4]; Temps 24 h): 12,7
- Indice de péroxydes ([4]; Temps 48 h): 25.2

— patent publication EP0117176A1, “Zinc salt of L-thiazolidine-4-carboxylic acid, its preparation, compositions containing it and its use” (PIERRE FABRE S.A., priority 1983, dated 1984)
